From US20040192771A1, “Ether compounds and compositions for cholesterol management and related uses” (priority 2001, published 2004) come the findings set out here.

The subject of assay [1] is primary rat hepatocytes. In words: Inhibition of lipid synthesis ([1-14C]-acetate incorporation) in primary cultures of rat hepatocytes. The class given is cell-based. Conditions: Hepatocyte, total lipid synthesis, 4 hours incubation. The procedure:
Compounds were tested for inhibition of lipid synthesis in primary cultures of rat hepatocytes. Male Sprague-Dawley rats were anesthetized with intraperitoneal injection of sodium pentobarbital (80 mg/kg). Rat hepatocytes were isolated essentially as described by the method of Seglen (Seglen, P. O. Hepatocyte suspensions and cultures as tools in experimental carcinogenesis. J. Toxicol. Environ. Health 1979, 5, 551-560). Hepatocytes were suspended in Dulbecco's Modified Eagles Medium containing 25 mM D-glucose, 14 mM HEPES, 5 mM L-glutamine, 5 mM leucine, 5 mM alanine, 10 mM lactate, 1 mM pyruvate, 0.2% bovine serum albumin, 17.4 mM non-essential amino acids, 20% fetal bovine serum, 100 nM insulin and 20 μg/mL gentamycin) and plated at a density of 1.5×10^5 cells/cm^2 on collagen-coated 96-well plates. Four hours after plating, media was replaced with the same media without serum. Cells were grown overnight to allow formation of monolayer cultures. Lipid synthesis incubation conditions were initially assessed to ensure the linearity of [1-^14C]-acetate incorporation into hepatocyte lipids for up to 4 hours. Hepatocyte lipid synthesis inhibitory activity was assessed during incubations in the presence of 0.25 μCi [1-^14C]-acetate/well (final radiospecific activity in assay is 1 Ci/mol) and 0, 1, 3, 10, 30, 100 or 300 μM of compounds for 4 hours. At the end of the 4-hour incubation period, medium was discarded and cells were washed twice with ice-cold phosphate buffered saline and stored frozen prior to analysis. To determine total lipid synthesis, 170 μl of MicroScint-E® and 50 μl water was added to each well to extract and partition the lipid soluble products to the upper organic phase containing the scintillant. Lipid radioactivity was assessed by scintillation spectroscopy in a Packard TopCount NXT.

The subject of assay [2] is obese female Zucker rats. In words: Oral daily treatment of obese female Zucker rats for fourteen days; serum lipids and glycemic control indicators. It is filed as in vivo. Conditions: Rattus norvegicus, percent change from study prebleed; for change in vivo at 30 mg/kg/day: 30 mg/kg/day oral; for change in vivo at 100 mg/kg/day: 100 mg/kg/day oral; for change in vivo at 70 mg/kg/day: 70 mg/kg/day oral; for change in vivo at 90 mg/kg/day: 90 mg/kg/day oral. The protocol: In a number of different experiments, illustrative compounds of the invention are administered daily at a dose of up to 100 mg/kg to chow fed obese female Zucker rats for fourteen days in the morning by oral gavage in 1.5% carboxymethylcellulose/0.2% Tween 20 or 20% ethanol/80% polyethylene glycol (dosing vehicles). Animals are weighed daily. Animals are allowed free access to rodent chow and water throughout the study except on days of blood sampling where food is restricted for six hours prior to blood sampling. Blood glucose is determined after the 6 hour fast in the afternoon without anesthesia from a tail vein. Serum is also prepared from pretreatment blood samples subsequently obtained from the orbital venous plexus (with O2/CO2 anesthesia) and following the fourteenth dose at sacrifice from the heart following O2/CO2 anesthesia. Serums are assayed for lipoprotein cholesterol profiles, triglycerides, total cholesterol, Non HDL cholesterol, HDL cholesterol, the ratio of HDL cholesterol to that of Non HDL cholesterol, insulin, non esterified fatty acids, and beta hydroxy butyric acid. The percent body weight gain and the ratio of liver to body weight is also determined. These are shown as absolute values or as a percent change of the pretreatment values in Table C. [drawing 479] [drawing 480]

Where [3] appears, read: 168 h, week 1, read-out: Glucose.
Setting [4] is: 168 h, week 1, read-out: Insulin.
Setting [5] is: 168 h, week 1, read-out: Non-HDL-C.
[6] abbreviates: 336 h, week 2, read-out: Glucose.
Setting [7] is: 336 h, week 2, read-out: Insulin.
Setting [8] is: 336 h, week 2, read-out: Non-HDL-C.

Where two headings read alike, the source gives them in different places.

For the compound `CC(C)(CO)CCCCCOCCCCC(C)(C)CO` [Compound 130, 7-(6-Hydroxy-5,5-dimethylhexyloxy)-2,2-dimethylheptan-1-ol], half-maximal inhibition in assay [1] (IC50) required 8.4 µM. The change in vivo at 30 mg/kg/day in assay [2] (setting [3]) was 6%; in assay [2] (168 h, week 1, read-out: HDL-C) it was 71%; in assay [2] (setting [4]), 25%; in assay [2] (setting [5]), -26%; in assay [2] (168 h, week 1, read-out: TC), 41%; in assay [2] (168 h, week 1, read-out: TG), -66%. The change in vivo at 30 mg/kg/day in assay [2] (setting [6]) is 6%; in assay [2] (336 h, week 2, read-out: HDL-C), 105%; in assay [2] (setting [7]), 13%; in assay [2] (setting [8]), 17%; in assay [2] (336 h, week 2, read-out: TC) it was 77%; in assay [2] (336 h, week 2, read-out: TG), -47%.
Regarding `CC(C)(CO)CCCCCOCCCCCC(C)(C)CO` [Compound 131, 7-(7-Hydroxy-6,6-dimethylheptyloxy)-2,2-dimethylheptan-1-ol], in assay [1], half-maximal inhibition (IC50) required 3.8 µM. The change in vivo at 100 mg/kg/day in assay [2] (setting [3]) was -6%; in assay [2] (168 h, week 1, read-out: HDL-C), 292%; in assay [2] (setting [4]) it was 40%; in assay [2] (setting [5]), -79%; in assay [2] (168 h, week 1, read-out: TC), 85%; in assay [2] (168 h, week 1, read-out: TG), -91%. The change in vivo at 100 mg/kg/day in assay [2] (setting [6]) was -5%; in assay [2] (336 h, week 2, read-out: HDL-C), 289%; in assay [2] (setting [7]), -1%; in assay [2] (setting [8]), -57%; in assay [2] (336 h, week 2, read-out: TC), 106%; in assay [2] (336 h, week 2, read-out: TG) it was -88%.
As for `CC(C)(Cc1cccc(Oc2cccc(CC(C)(C)C(=O)O)c2)c1)C(=O)O` [Compound 135, 3-{3-[3-(2-Carboxy-2-methylpropyl)-phenoxy]-phenyl}-2,2-dimethylpropionic acid], the midpoint of inhibition in assay [1], the IC50, lay at 52 µM. Also, the change in vivo at 70 mg/kg/day in assay [2] (setting [3]) was -13%; in assay [2] (168 h, week 1, read-out: HDL-C), 63%; in assay [2] (setting [4]), -43%; in assay [2] (setting [5]), -53%; in assay [2] (168 h, week 1, read-out: TC), 3%; in assay [2] (168 h, week 1, read-out: TG) it was -45%. Moreover, the change in vivo at 70 mg/kg/day was -16% in assay [2] (setting [6]); 31% in assay [2] (336 h, week 2, read-out: HDL-C); 1% in assay [2] (setting [7]); -41% in assay [2] (setting [8]); -7% in assay [2] (336 h, week 2, read-out: TC); -52% in assay [2] (336 h, week 2, read-out: TG).
Regarding `CC(C)(CO)Cc1cccc(Oc2cccc(CC(C)(C)CO)c2)c1` [Compound 136, 3-{3-[3-(3-Hydroxy-2,2-dimethylpropyl)-phenoxy]-phenyl}-2,2-dimethylpropan-1-ol], the 50% inhibitory concentration (IC50) (as a rule, the concentration that inhibits the measured activity by half) in assay [1] was 98 µM. For the same compound, the change in vivo at 90 mg/kg/day in assay [2] (setting [3]) is -20%; in assay [2] (168 h, week 1, read-out: HDL-C), 22%; in assay [2] (setting [4]) it was -57%; in assay [2] (setting [5]), -12%; in assay [2] (168 h, week 1, read-out: TC), 1%; in assay [2] (168 h, week 1, read-out: TG), 13%. For the same compound, the change in vivo at 90 mg/kg/day in assay [2] (setting [6]) is -3%; in assay [2] (336 h, week 2, read-out: HDL-C), -4%; in assay [2] (setting [7]), -45%; in assay [2] (setting [8]), 23%; in assay [2] (336 h, week 2, read-out: TC) it was 9%; in assay [2] (336 h, week 2, read-out: TG), 18%.
In turn, `CC(C)(CO)CCCC1CCCC(CCCC(C)(C)CO)O1` (centres unmarked) [Compound 141, 5-[6-(5-Hydroxy-4,4-dimethylpentyl)-tetrahydropyran-2-yl]-2,2-dimethylpentan-1-ol] had an IC50 in assay [1] of 39 µM. Moreover, the change in vivo at 100 mg/kg/day in assay [2] (setting [3]) was -14%; in assay [2] (168 h, week 1, read-out: HDL-C), 75%; in assay [2] (setting [4]), -2%; in assay [2] (setting [5]), -70%; in assay [2] (168 h, week 1, read-out: TC), 28%; in assay [2] (168 h, week 1, read-out: TG), -74%. The change in vivo at 100 mg/kg/day in assay [2] (setting [6]) was -9%; in assay [2] (336 h, week 2, read-out: HDL-C), 127%; in assay [2] (setting [7]) it was 10%; in assay [2] (setting [8]) it was -31%; in assay [2] (336 h, week 2, read-out: TC) it was 70%; in assay [2] (336 h, week 2, read-out: TG) it was -47%.
